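Values below derive from 48-hour exposures of cells grown in 96-well plates, with endpoints linearly interpolated between the two concentrations bracketing the appropriate inhibition level. GI50 is the concentration that inhibits growth by half. At the TGI there is no net growth.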
Key:
Experiment in all cases: NCI tumour cell line growth inhibition, 48 h
DMS 114 small cell lung = system: DMS 114 small cell lung
M19-MEL melanoma = system: M19-MEL melanoma
KM20L2 colon = system: KM20L2 colon
DMS 273 small cell lung = system: DMS 273 small cell lung
SNB-78 CNS = system: SNB-78 CNS
RXF-631 renal = system: RXF-631 renal
DLD-1 colon = system: DLD-1 colon
LXFL 529 NSCLC = system: LXFL 529 NSCLC
MDA-N = system: MDA-N
P388 leukemia = system: P388 leukemia
P388/ADR leukemia = system: P388/ADR leukemia

Structure (SMILES)	TGI (DMS 114 small cell lung)	TGI (M19-MEL melanoma)	TGI (KM20L2 colon)	TGI (DMS 273 small cell lung)	TGI (SNB-78 CNS)	TGI (RXF-631 renal)	TGI (DLD-1 colon)	TGI (LXFL 529 NSCLC)	TGI (MDA-N)	TGI (P388 leukemia)	TGI (P388/ADR leukemia)	GI50 (MDA-N)
O=C1CN=C(c2ccccc2)c2ccncc2N1	> 100 µM	> 100 µM	> 100 µM	> 100 µM	> 100 µM	> 100 µM	> 100 µM	> 100 µM	–	–	–	–
CC(C)(C)CNCCO	–	–	–	–	–	–	–	–	> 100 µM	–	–	–
CN(N=O)C(=O)NC(CCCCNC(=O)OCc1ccccc1)C(=O)OCc1ccccc1 (stereo not given)	72.6 µM	91.2 µM	> 100 µM	> 100 µM	60.4 µM	44.8 µM	> 100 µM	94 µM	–	–	–	–
CCOP(=O)(OCC)C(C(=O)OC)C(=O)C(=O)Nc1cccc([N+](=O)[O-])c1 (stereo not given)	> 100 µM	> 100 µM	> 100 µM	> 100 µM	> 100 µM	> 100 µM	> 100 µM	> 100 µM	–	–	–	–
O=c1oc2ccccc2cc1P(=O)(O)O	–	–	–	–	–	–	–	–	> 100 µM	–	–	–
CC(C)(Sc1cc(C(C)(C)C)c(O)c(C(C)(C)C)c1)Sc1cc(C(C)(C)C)c(O)c(C(C)(C)C)c1	–	–	–	–	–	–	–	–	> 100 µM	–	–	–
COc1ccc(C(O)C(c2ccc(OCc3ccccc3)cc2)c2ccc(OCc3ccccc3)cc2)cc1 (stereo not given)	> 100 µM	> 100 µM	> 100 µM	> 100 µM	> 100 µM	–	> 100 µM	> 100 µM	–	–	–	–
COC1C(OC(=O)/C=C/C=C/C=C/C=C/C(=O)O)CCC2(CO2)C1C1(C)OC1CC=C(C)C (stereo not given)	> 100 µM	> 100 µM	> 100 µM	> 100 µM	> 100 µM	–	> 100 µM	–	> 100 µM	29.1 µM	> 49.2 µM	0.246 µM
O=S(=O)(c1ccccc1)N1CCC1c1ccccc1 (stereo not given)	> 100 µM	> 100 µM	> 100 µM	> 100 µM	> 100 µM	> 100 µM	–	–	–	–	–	–
Cc1cc(C)c2c(c1)CSCc1cc(C)cc(C)c1-2	69.9 µM	69.2 µM	> 100 µM	> 100 µM	62 µM	–	> 100 µM	> 100 µM	–	–	–	–
OC(c1ccccc1)c1c(-c2ccccc2)[nH]c(-c2ccccc2)c1C(O)c1ccccc1 (stereo not given)	–	–	–	–	–	–	–	–	7.2 µM	–	–	–
O=[N+]([O-])c1ccc(Cl)c(C2CC(c3cccc4ccccc34)=Nc3ccccc3S2=O)c1 (stereo not given)	41.1 µM	> 62.7 µM	> 63.6 µM	> 100 µM	38.9 µM	> 100 µM	26.1 µM	52.8 µM	–	–	–	–
CCOc1ccc2c(c1)[n+]([O-])c(C(N)=O)c(N)[n+]2[O-]	> 100 µM	> 100 µM	> 100 µM	> 100 µM	> 100 µM	–	> 100 µM	> 100 µM	–	–	–	–
COc1cccc(C2CC(C)(O)Oc3cc4c(cc32)OCO4)c1 (stereo not given)	–	–	–	–	–	–	–	–	7.84 µM	–	–	–
COc1ccc2c(c1[N+](=O)[O-])CC[C@@H]1[C@@H]2CC[C@]2(C)C(=O)CC[C@@H]12	25 µM	> 25 µM	> 25 µM	> 25 µM	25 µM	–	> 25 µM	–	> 1000 µM	> 25 µM	25 µM	> 25 µM
O=C(O)c1ccccc1NS(=O)(=O)c1ccc(Cl)cc1	> 100 µM	> 100 µM	> 100 µM	> 100 µM	> 100 µM	–	> 100 µM	> 100 µM	–	–	–	–
CC(C)OC(=O)Nc1c([N+](=O)[O-])cc(C(F)(F)F)cc1[N+](=O)[O-]	–	–	> 100 µM	> 100 µM	> 100 µM	–	> 100 µM	> 100 µM	> 100 µM	–	–	–
CC1COS(=O)N1c1ccccc1 (stereo not given)	> 100 µM	> 100 µM	> 100 µM	> 100 µM	–	–	> 100 µM	> 100 µM	–	–	–	–
Clc1ccc(NCNC2Nc3ccccc3N2)cc1Cl	–	–	–	–	–	–	–	–	> 100 µM	–	–	–
NCCNCCNCc1c2ccccc2c(CNCCNCCN)c2ccccc12	> 100 µM	> 100 µM	> 100 µM	–	> 100 µM	–	> 100 µM	> 100 µM	–	–	–	–
O=C(c1ccccc1)[C@H]1Nc2ccc(Cl)cc2[C@H]2c3ccccc3O[C@H]21	40.1 µM	39.5 µM	28.3 µM	38.7 µM	32.3 µM	–	30 µM	28.5 µM	–	–	–	–
Cc1cc[c]([Sb]2[O]C(CO)C(C(O)C(O)C(=O)O)[O]2)cc1 (stereo not given)	–	–	–	–	–	–	–	–	> 100 µM	–	–	43.5 µM
C=C1C(=O)O[C@@H]2C[C@@]3(C)CCC[C@H](C)C3=C[C@H]12 (tested in a mixture with another compound)	–	–	–	–	–	–	–	–	7.08 µM	–	–	–
